Laboratory results as given in PMC9431551, “Isolation of the Thermostable β-Glucosidase-Secreting Strain Bacillus altitudinis JYY-02 and Its Application in the Production of Gardenia Blue” (Microbiology Spectrum, 2022).

Tested on: T1, recombinant β-glucosidase of B. altitudinis JYY-02 (bgl)
T1 construct: full-length ORF 1,467 bp, 488 residues, N-terminus MTTIKG from forward primer; E. coli BL21(DE3); 54 kDa
Test: p-nitrophenol release at […] nm, Lineweaver-Burk plot
Format: biochemical, Bacillus altitudinis
Conditions: citrate-disodium hydrogen phosphate buffer 0.2 M, pH 5.6, 55°C (standard assay); abstract prints 0.331 mM

A Km of 332 µM was found for `O=[N+]([O-])c1ccc(O[C@@H]2O[C@H](CO)[C@@H](O)[C@H](O)[C@H]2O)cc1` [p-nitrophenyl-β-D-glucopyranoside] in this work.
